Each block holds one molecule with its values, some of them ahead of it.
Columns and labels:
[1] = Example 6: pritelivir (dihydrate) suspension stability and solubility study; format: physicochemical; conditions: 0.9% NaCl + 0.5% polysorbate 80 vehicle, RT
Procedure: An aqueous suspension of crystalline pritelivir free base (dihydrate) in a 0.9% NaCl+0.5% polysorbate 80 vehicle was prepared as follows: • 1) Vehicle (0.9% w/w NaCl and 0.5% w/w polysorbate 80) was prepared by dissolving NaCl and polysorbate 80 in water. • 2) Excess amounts of pritelivir (dihydrate) were weighed and added to the vehicle to achieve −3 mg/mL suspension. • 3) The suspension was sonicated for 15 minutes, then agitated at 500 rpm at room temperature. • 4) At 24 hours, the suspension was filtrated and the filter cake was dried and analyzed by XRPD. The filtrate was analyzed by HPLC to determine solubility. The HPLC methodology and conditions used to quantify pritelivir in the filtrate are described in Table 11.

[2] = cited from earlier work
[3] = tested on: recurrent genital herpes; conditions: oral 100, 200, 400, 1200 mg; patients with recurrent genital herpes; cited from earlier work
[4] = tested on: recurrent genital HSV-2; conditions: 28 days daily oral dosing; pritelivir 100 mg (after 400 mg loading dose), valacyclovir 500 mg; cited from earlier work

- solubility at 24 h ([1]; 0.9% NaCl + 0.5% polysorbate 80 aqueous vehicle, aqueous with cosolvent or surfactant or cyclodextrin, thermodynamic from solid, n = 1): 16.5 µg/mL
- Insoluble material (solid form by XRPD after solubility experiment) ([1]; 24 hours): Dihydrate
SMILES: Cc1nc(N(C)C(=O)Cc2ccc(-c3ccccn3)cc2)sc1S(N)(=O)=O [Dihydrate, N-methyl-N-(4-methyl-5-sulfamoyl-1,3-thiazol-2-yl)-2-[4-(pyridin-2-yl)phenyl]acetamide]

SMILES: Nc1nc2c(ncn2COCCO)c(=O)[nH]1 [acyclovir]
- human bioavailability following oral administration [2]: 10-20%

SMILES: Cc1cccc(C)c1N(CC(=O)Nc1ccc(-c2ncon2)cc1)C(=O)C1CCS(=O)(=O)CC1 [amenamevir]
- time to lesion healing vs placebo [3]: only significantly different between the very highest 1200 mg single dose group and the placebo-tested group

SMILES: CC(C)[C@H](N)C(=O)OCCOCn1cnc2c(=O)[nH]c(N)nc21 [valacyclovir]
- HSV shedding, % of genital swabs analysed [4]: 5.3%
